Test results from patent US20230085307A1, “PYRIDAZINONE COMPOUND AND HERBICIDE” (NISSAN CHEMICAL CORPORATION, priority 2019, published 2023).

Key:
[1] = tested on: barnyard grass; test: Test Example 3: herbicidal effect by foliage application, Wagner pot (Table 18, symbol H); format: in vivo, barnyard grass (Echinochloa crus-galli); conditions: 320 g/ha
Method in brief: (§1)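 Plants were sown in alluvial soil held under 0.1–0.5 cm standing water and grown 14 days in a greenhouse at 25–30 °C. An emulsifiable formulation, water-diluted to the set dose, was then sprayed onto the foliage, and effects were scored three weeks later using previously defined criteria.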

[2] = tested on: Chinese sprangletop; test: Test Example 3: herbicidal effect by foliage application, Wagner pot (Table 18, symbol D); format: in vivo, chinese sprangletop (Leptochloa chinensis); conditions: 320 g/ha
Method in brief: as §1

[3] = tested on: rice flat sedge; test: Test Example 3: herbicidal effect by foliage application, Wagner pot (Table 18, symbol E); format: in vivo, rice flat sedge (Cyperus iria); conditions: 320 g/ha
Method in brief: as §1

[4] = tested on: southern crabgrass; test: Test Example 4: herbicidal effect by soil treatment (Table 19, symbol F); format: in vivo, southern crabgrass (Digitaria ciliaris); conditions: amount of applied herbicide 320 g/ha
Method in brief: (§2)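 Step 1: sow seeds in sterilized diluvial soil, cover ~1.5 cm. Step 2: spray diluted emulsion onto soil surface at predetermined rate. Step 3: greenhouse, 25–30° C, three weeks. Step 4: grade effect on each plant by earlier criteria.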

[5] = tested on: green foxtail; test: Test Example 4: herbicidal effect by soil treatment (Table 19, symbol G); format: in vivo, green foxtail (Setaria viridis); conditions: amount of applied herbicide 320 g/ha
Method in brief: as §2

[6] = tested on: barnyard grass; test: Test Example 4: herbicidal effect by soil treatment (Table 19, symbol H); format: in vivo, barnyard grass (Echinochloa crus-galli); conditions: amount of applied herbicide 320 g/ha
Method in brief: as §2

[7] = tested on: wild oat; test: Test Example 4: herbicidal effect by soil treatment (Table 19, symbol I); format: in vivo, wild oat (Avena fatua); conditions: amount of applied herbicide 320 g/ha
Method in brief: as §2

[8] = tested on: blackgrass; test: Test Example 4: herbicidal effect by soil treatment (Table 19, symbol J); format: in vivo, blackgrass (Alopecurus myosuroides); conditions: amount of applied herbicide 320 g/ha
Method in brief: as §2

[9] = tested on: Italian ryegrass; test: Test Example 4: herbicidal effect by soil treatment (Table 19, symbol K); format: in vivo, Italian ryegrass (Lolium multiflorum); conditions: amount of applied herbicide 320 g/ha
Method in brief: as §2

[10] = tested on: windgrass; test: Test Example 4: herbicidal effect by soil treatment (Table 19, symbol L); format: in vivo, windgrass (Apera spica-venti); conditions: amount of applied herbicide 320 g/ha
Method in brief: as §2

[11] = tested on: velvetleaf; test: Test Example 4: herbicidal effect by soil treatment (Table 19, symbol M); format: in vivo, velvetleaf (Abutilon theophrasti); conditions: amount of applied herbicide 320 g/ha
Method in brief: as §2

[12] = tested on: redroot pigweed; test: Test Example 4: herbicidal effect by soil treatment (Table 19, symbol N); format: in vivo, redroot pigweed (Amaranthus retroflexus); conditions: amount of applied herbicide 320 g/ha
Method in brief: as §2

[13] = tested on: lambsquarters; test: Test Example 4: herbicidal effect by soil treatment (Table 19, symbol O); format: in vivo, lambsquarters (Chenopodium album); conditions: amount of applied herbicide 320 g/ha
Method in brief: as §2

[14] = tested on: chickweed; test: Test Example 4: herbicidal effect by soil treatment (Table 19, symbol P); format: in vivo, common chickweed (Stellaria media); conditions: amount of applied herbicide 320 g/ha
Method in brief: as §2

[15] = tested on: persian speedwell; test: Test Example 4: herbicidal effect by soil treatment (Table 19, symbol R); format: in vivo, Persian speedwell (Veronica persica); conditions: amount of applied herbicide 320 g/ha
Method in brief: as §2

[16] = tested on: southern crabgrass; test: Test Example 5: herbicidal effect by foliage application, plastic box (Table 20, symbol F); format: in vivo, southern crabgrass (Digitaria ciliaris); conditions: amount of applied herbicide 320 g/ha; foliage application after 14-day growth; evaluated three weeks after application
Method in brief: (§3)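 Foliar spray test: emulsion formulation diluted in water to a set application rate, sprayed onto 14-day-old plants raised in diluvial soil at 25° C to 30° C under glass. Both herbicidal effect and crop effect rated visually three weeks later.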

[17] = tested on: green foxtail; test: Test Example 5: herbicidal effect by foliage application, plastic box (Table 20, symbol G); format: in vivo, green foxtail (Setaria viridis); conditions: amount of applied herbicide 320 g/ha; foliage application after 14-day growth; evaluated three weeks after application
Method in brief: as §3

[18] = tested on: barnyard grass; test: Test Example 5: herbicidal effect by foliage application, plastic box (Table 20, symbol H); format: in vivo, barnyard grass (Echinochloa crus-galli); conditions: amount of applied herbicide 320 g/ha; foliage application after 14-day growth; evaluated three weeks after application
Method in brief: as §3

[19] = tested on: wild oat; test: Test Example 5: herbicidal effect by foliage application, plastic box (Table 20, symbol I); format: in vivo, wild oat (Avena fatua); conditions: amount of applied herbicide 320 g/ha; foliage application after 14-day growth; evaluated three weeks after application
Method in brief: as §3

[20] = tested on: blackgrass; test: Test Example 5: herbicidal effect by foliage application, plastic box (Table 20, symbol J); format: in vivo, blackgrass (Alopecurus myosuroides); conditions: amount of applied herbicide 320 g/ha; foliage application after 14-day growth; evaluated three weeks after application
Method in brief: as §3

[21] = tested on: Italian ryegrass; test: Test Example 5: herbicidal effect by foliage application, plastic box (Table 20, symbol K); format: in vivo, Italian ryegrass (Lolium multiflorum); conditions: amount of applied herbicide 320 g/ha; foliage application after 14-day growth; evaluated three weeks after application
Method in brief: as §3

[22] = tested on: windgrass; test: Test Example 5: herbicidal effect by foliage application, plastic box (Table 20, symbol L); format: in vivo, windgrass (Apera spica-venti); conditions: amount of applied herbicide 320 g/ha; foliage application after 14-day growth; evaluated three weeks after application
Method in brief: as §3

[23] = tested on: velvetleaf; test: Test Example 5: herbicidal effect by foliage application, plastic box (Table 20, symbol M); format: in vivo, velvetleaf (Abutilon theophrasti); conditions: amount of applied herbicide 320 g/ha; foliage application after 14-day growth; evaluated three weeks after application
Method in brief: as §3

[24] = tested on: redroot pigweed; test: Test Example 5: herbicidal effect by foliage application, plastic box (Table 20, symbol N); format: in vivo, redroot pigweed (Amaranthus retroflexus); conditions: amount of applied herbicide 320 g/ha; foliage application after 14-day growth; evaluated three weeks after application
Method in brief: as §3

[25] = tested on: lambsquarters; test: Test Example 5: herbicidal effect by foliage application, plastic box (Table 20, symbol O); format: in vivo, lambsquarters (Chenopodium album); conditions: amount of applied herbicide 320 g/ha; foliage application after 14-day growth; evaluated three weeks after application
Method in brief: as §3

[26] = tested on: chickweed; test: Test Example 5: herbicidal effect by foliage application, plastic box (Table 20, symbol P); format: in vivo, common chickweed (Stellaria media); conditions: amount of applied herbicide 320 g/ha; foliage application after 14-day growth; evaluated three weeks after application
Method in brief: as §3

[27] = tested on: persian speedwell; test: Test Example 5: herbicidal effect by foliage application, plastic box (Table 20, symbol R); format: in vivo, Persian speedwell (Veronica persica); conditions: amount of applied herbicide 320 g/ha; foliage application after 14-day growth; evaluated three weeks after application
Method in brief: as §3

COc1ccc(-c2sc3cc(F)c(F)cc3c2-c2c(O)c(C)nn(C)c2=O)cc1OC [5-033]
herbicidal effect on barnyard grass (H) [1]: 4 (Herbicidal rate of 70% or more and less than 90%) | herbicidal effect on Chinese sprangletop (D) [2]: 3 (Herbicidal rate of 40% or more and less than 70%) | herbicidal effect on rice flat sedge (E) [3]: 4 (Herbicidal rate of 70% or more and less than 90%) | F: southern crabgrass, herbicidal effect grade [4]: 3 (Herbicidal rate of 40% or more and less than 70%) | G: green foxtail, herbicidal effect grade [5]: 3 (Herbicidal rate of 40% or more and less than 70%) | H: barnyard grass, herbicidal effect grade [6]: 3 (Herbicidal rate of 40% or more and less than 70%) | I: wild oat, herbicidal effect grade [7]: 0 (Herbicidal rate of 5% or less (almost no effect)) | J: blackgrass, herbicidal effect grade [8]: 0 (Herbicidal rate of 5% or less (almost no effect)) | K: Italian ryegrass, herbicidal effect grade [9]: 0 (Herbicidal rate of 5% or less (almost no effect)) | L: windgrass, herbicidal effect grade [10]: 0 (Herbicidal rate of 5% or less (almost no effect)) | M: velvetleaf, herbicidal effect grade [11]: 0 (Herbicidal rate of 5% or less (almost no effect)) | N: redroot pigweed, herbicidal effect grade [12]: 3 (Herbicidal rate of 40% or more and less than 70%) | O: lambsquarters, herbicidal effect grade [13]: 4 (Herbicidal rate of 70% or more and less than 90%) | P: chickweed, herbicidal effect grade [14]: 1 (Herbicidal rate of 5% or more and less than 20%) | R: persian speedwell, herbicidal effect grade [15]: 0 (Herbicidal rate of 5% or less (almost no effect)) | Herbicidal effect by foliage application, F: southern crabgrass [16]: 1 (Herbicidal rate of 5% or more and less than 20%) | Herbicidal effect by foliage application, G: green foxtail [17]: 4 (Herbicidal rate of 70% or more and less than 90%) | Herbicidal effect by foliage application, H: barnyard grass [18]: 3 (Herbicidal rate of 40% or more and less than 70%) | Herbicidal effect by foliage application, I: wild oat [19]: 0 (Herbicidal rate of 5% or less (almost no effect)) | Herbicidal effect by foliage application, J: blackgrass [20]: 0 (Herbicidal rate of 5% or less (almost no effect)) | Herbicidal effect by foliage application, K: Italian ryegrass [21]: 4 (Herbicidal rate of 70% or more and less than 90%) | Herbicidal effect by foliage application, L: windgrass [22]: 0 (Herbicidal rate of 5% or less (almost no effect)) | Herbicidal effect by foliage application, M: velvetleaf [23]: 4 (Herbicidal rate of 70% or more and less than 90%) | Herbicidal effect by foliage application, N: redroot pigweed [24]: 3 (Herbicidal rate of 40% or more and less than 70%) | Herbicidal effect by foliage application, O: lambsquarters [25]: 4 (Herbicidal rate of 70% or more and less than 90%) | Herbicidal effect by foliage application, P: chickweed [26]: 5 (Herbicidal rate of 90% or more (almost completely withered)) | Herbicidal effect by foliage application, R: persian speedwell [27]: 5 (Herbicidal rate of 90% or more (almost completely withered))

CCCC(=O)Oc1c(C)nn(C)c(=O)c1-c1c(-c2ccc(F)cc2)sc2cc(Cl)c(Cl)cc12 [5-040]
herbicidal effect on barnyard grass (H) [1]: 4 (Herbicidal rate of 70% or more and less than 90%) | herbicidal effect on Chinese sprangletop (D) [2]: 1 (Herbicidal rate of 5% or more and less than 20%) | herbicidal effect on rice flat sedge (E) [3]: 0 (Herbicidal rate of 5% or less (almost no effect)) | F: southern crabgrass, herbicidal effect grade [4]: 0 (Herbicidal rate of 5% or less (almost no effect)) | G: green foxtail, herbicidal effect grade [5]: 3 (Herbicidal rate of 40% or more and less than 70%) | H: barnyard grass, herbicidal effect grade [6]: 0 (Herbicidal rate of 5% or less (almost no effect)) | I: wild oat, herbicidal effect grade [7]: 0 (Herbicidal rate of 5% or less (almost no effect)) | J: blackgrass, herbicidal effect grade [8]: 0 (Herbicidal rate of 5% or less (almost no effect)) | K: Italian ryegrass, herbicidal effect grade [9]: 0 (Herbicidal rate of 5% or less (almost no effect)) | L: windgrass, herbicidal effect grade [10]: 0 (Herbicidal rate of 5% or less (almost no effect)) | M: velvetleaf, herbicidal effect grade [11]: 2 (Herbicidal rate of 20% or more and less than 40%) | N: redroot pigweed, herbicidal effect grade [12]: 4 (Herbicidal rate of 70% or more and less than 90%) | O: lambsquarters, herbicidal effect grade [13]: 0 (Herbicidal rate of 5% or less (almost no effect)) | P: chickweed, herbicidal effect grade [14]: 0 (Herbicidal rate of 5% or less (almost no effect)) | R: persian speedwell, herbicidal effect grade [15]: 0 (Herbicidal rate of 5% or less (almost no effect)) | Herbicidal effect by foliage application, F: southern crabgrass [16]: 0 (Herbicidal rate of 5% or less (almost no effect)) | Herbicidal effect by foliage application, G: green foxtail [17]: 1 (Herbicidal rate of 5% or more and less than 20%) | Herbicidal effect by foliage application, H: barnyard grass [18]: 2 (Herbicidal rate of 20% or more and less than 40%) | Herbicidal effect by foliage application, I: wild oat [19]: 3 (Herbicidal rate of 40% or more and less than 70%) | Herbicidal effect by foliage application, J: blackgrass [20]: 0 (Herbicidal rate of 5% or less (almost no effect)) | Herbicidal effect by foliage application, K: Italian ryegrass [21]: 0 (Herbicidal rate of 5% or less (almost no effect)) | Herbicidal effect by foliage application, L: windgrass [22]: 3 (Herbicidal rate of 40% or more and less than 70%) | Herbicidal effect by foliage application, M: velvetleaf [23]: 1 (Herbicidal rate of 5% or more and less than 20%) | Herbicidal effect by foliage application, N: redroot pigweed [24]: 3 (Herbicidal rate of 40% or more and less than 70%) | Herbicidal effect by foliage application, O: lambsquarters [25]: 3 (Herbicidal rate of 40% or more and less than 70%) | Herbicidal effect by foliage application, P: chickweed [26]: 5 (Herbicidal rate of 90% or more (almost completely withered)) | Herbicidal effect by foliage application, R: persian speedwell [27]: 4 (Herbicidal rate of 70% or more and less than 90%)
